The source of these data is patent publication US10022376B2 (Pfizer Inc., priority 2014, dated 2018).

SMILES strings stand for the structures. Where a name gives a salt, the structure may show the parent alone.

For one test, the system named is rhIFNγ stimulated STAT-3 phosphorylation in the A549 human epithelial cell line. In words: A549 Cell Assay: Inhibition of pSTAT3. Conditions: A549 cells. The test is classed as cell-based. As for the experimental part: A549 Cell Assay: Inhibition of pSTAT3
An assay measuring the efficacy of JAK inhibitors on the functional response of recombinant human interferon γ (rhIFNγ) stimulated STAT-3 phosphorylation in the A549 human epithelial cell line.
A549 cells (ATCC #CCL-185), were plated at 30,000 cells/well in 96 well flat bottomed tissue culture plates (BD#353072) in 200 μL of growth medium (DMEM, Pfizer media prep, with 10% Fetal Bovine Serum, Sigma #F4135, 2 mM L-Glutamine, Pfizer media prep, 100 U/mL penicillin, Pfizer media prep, and 200 μg/ml streptomycin, Pfizer media prep), and cultured at 37° C., 5% CO2 incubator for 18 hours. Growth medium was removed by vacuum aspiration (V&P Scientific #vp187 bp-60), and 90 μL of pre-warmed assay medium (DMEM with 0.2% BSA, Miltenyi #130-091-376) was added to each well and incubated for 15 minutes at 37° C. 10 μL of vehicle control or test compound (final concentration range of 0.3 nM to 10 μM with 0.1% DMSO) was added to the cells. Plates were incubated at 37° C. for 1 hour. After compound incubation, 10 μL of 220 ng/mL recombinant human IFNγ (R&D Systems #285-IF, final rhIFNγ concentration of 20 ng/mL) was added to the cells and plates were incubated for 30 minutes at 37° C. Wells containing A549 cells, medium with 0.1% DMSO and no rhIFNγ were used as background controls. After rhIFNγ stimulation, media was aspirated from each well and 35 μL/well of iced-cold MSD lysis buffer containing protease and phosphatase inhibitors from Phospho-STAT3 Tyr705 assay kit (Meso-Scale Discovery #K150DID) was added to each well. Plates were incubated at 4° C. with shaking for 30 minutes. Cell lysates were assayed following the MSD Phospho-STAT3 Tyr705 assay kit protocol to detect pSTAT3.
Data were collected and transformed into percent inhibition and calculated using the following formula: […]
One may read the IC50 as the concentration at which inhibition is half-maximal. High values mean lower potency, low ones higher potency. `CCc1cc(O)c(F)cc1-c1cc2[nH]nc(-c3nc(C)c(C)[nH]3)c2c(NCc2ccccc2N(C)S(C)(=O)=O)n1` [Example 158] returned an IC50 of 31.3 nM.
The same measure, in the same setting: in the case of `CCc1cc(O)c(F)cc1-c1nc(NCc2ccccc2N(C)S(C)(=O)=O)c2cn[nH]c2n1` [Example 155, N-[2-({[6-(2-Ethyl-5-fluoro-4-hydroxyphenyl-1H-pyrazolo[3,4-d]pyrimidin-4-yl]amino}methyl)phenyl]-N-methylmethanesulfonamide hydrochloride] it was 30.1 nM.

Staying with this test, now noted: Homo sapiens; A549 cells.
The molecule `CCN(c1ccc(O)cc1CNc1nc(-c2cc(F)c(O)cc2CC(F)(F)F)nc2[nH]nc(C(N)=O)c12)S(=O)(=O)c1ccccc1` [Example 107, 4-((2-(N-ethylphenylsulfonamido)-5-hydroxybenzyl)amino)-6-(5-fluoro-4-hydroxy-2-(2,2,2-trifluoroethyl)phenyl)-1H-pyrazolo[3,4-d]pyrimidine-3-carboxamide] registered an IC50 of 899 nM.
As for `CN(c1ccccc1CNc1nc(-c2cc(F)c(O)cc2CC(F)(F)F)cc2[nH]nc(-n3cccn3)c12)S(C)(=O)=O` [Example 163, N-{2-[({6-[5-Fluoro-4-hydroxy-2-(2,2,2-trifluoroethyl)phenyl]-3-(1H-pyrazol-1-yl)-1H-pyrazolo[4,3-c]pyridin-4-yl}amino)methyl]phenyl}-N-methylmethanesulfonamide], inhibition was half-maximal at 98.6 nM (IC50).
Molecule `CNC(=O)c1n[nH]c2cc(-c3cc(F)c(O)cc3CC(F)(F)F)nc(NCC3CCCC3)c12` [Example 17, 4-[(cyclopentylmethyl)amino]-6-[5-fluoro-4-hydroxy-2-(2,2,2-trifluoroethyl)phenyl]-N-methyl-1H-pyrazolo[4,3-c]pyridine-3-carboxamide] gave an IC50 of 174 nM.
Same read-out and setting: in the case of `CN(c1ccccc1CNc1nc(-c2cc(F)c(O)cc2CC(F)(F)F)cc2[nH]nc(C(N)=O)c12)S(=O)(=O)c1cccnc1` [Example 61, 6-[5-fluoro-4-hydroxy-2-(2,2,2-trifluoroethyl)phenyl]-4-({2-[methyl(pyridin-3-ylsulfonyl)amino]benzyl}amino)-1H-pyrazolo[4,3-c]pyridine-3-carboxamide] it was 71.2 nM.
The same measure, in the same setting: in the case of `CCc1cc(O)c(F)cc1-c1cc2[nH]nc(C(=O)NC)c2c(N[C@H](C)c2ccccc2N(C)S(C)(=O)=O)n1` [Example 38, 6-(2-Ethyl-5-fluoro-4-hydroxyphenyl)-N-methyl-4-{[(1R)-1-{2-[methyl(methylsulfonyl)amino]phenyl}ethyl]amino}-1H-pyrazolo[4,3-c]pyridine-3-carboxamide] it was 30.8 nM.
The same measure, in the same setting: in the case of `CCN(c1ccc(Cl)cc1CNc1nc(-c2cc(F)c(O)cc2CC(F)(F)F)cc2[nH]nc(C(N)=O)c12)S(C)(=O)=O` [Example 84, 4-((5-chloro-2-(N-ethylmethylsulfonamido)benzyl)amino)-6-(5-fluoro-4-hydroxy-2-(2,2,2-trifluoroethyl)phenyl)-1H-pyrazolo[4,3-c]pyridine-3-carboxamide] it was 32.9 nM.
As for `CCN(c1ccccc1CNc1nc(-c2cc(F)c(O)cc2CC(F)(F)F)cc2[nH]nc(C(=O)NC)c12)S(=O)(=O)CC` [Example 1, 4-({2-[Ethyl(ethylsulfonyl)amino]benzyl}amino)-6-[5-fluoro-4-hydroxy-2-(2,2,2-trifluoroethyl)phenyl]-N-methyl-1H-pyrazolo[4,3-c]pyridine-3-carboxamide], it took 67.4 nM to reach half-maximal inhibition (IC50).
Consider `CCc1cc(O)c(F)cc1-c1nc(NCc2ccccc2N(C)S(=O)(=O)c2ccccc2)c2c(C(N)=O)n[nH]c2n1` [Example 95, 6-(2-Ethyl-5-fluoro-4-hydroxyphenyl)-4-((2-(N-methylphenylsulfonamido)benzyl)amino)-1H-pyrazolo[3,4-d]pyrimidine-3-carboxamide], for which it took 59.9 nM to reach half-maximal inhibition (IC50).
The same measure, in the same setting: in the case of `CNC(=O)c1n[nH]c2cc(-c3cc(F)c(O)cc3CC(F)(F)F)nc(NCc3cnccc3N(C)S(C)(=O)=O)c12` [Example 48, 6-[5-fluoro-4-hydroxy-2-(2,2,2-trifluoroethyl)phenyl]-N-methyl-4-[({4-[methyl(methylsulfonyl)amino]pyridin-3-yl}methyl)amino]-1H-pyrazolo[4,3-c]pyridine-3-carboxamide] it was more than 10000 nM.
Same read-out and setting: in the case of `CCN(c1ccc(O)cc1CNc1nc(-c2cc(F)c(O)cc2CC(F)(F)F)cc2[nH]nc(C(=O)NC)c12)S(C)(=O)=O` [Example 34, 4-({2-[ethyl(methylsulfonyl)amino]-5-hydroxybenzyl}amino)-6-[5-fluoro-4-hydroxy-2-(2,2,2-trifluoroethyl)phenyl]-N-methyl-1H-pyrazolo[4,3-c]pyridine-3-carboxamide] it was 301 nM; in that of `CCN(c1ncc(Cl)cc1CNc1nc(-c2cc(F)c(O)cc2CC(F)(F)F)cc2[nH]nc(C(N)=O)c12)S(C)(=O)=O` [Example 71, 4-[({5-chloro-2-[ethyl(methylsulfonyl)amino]pyridin-3-yl}methyl)amino]-6-[5-fluoro-4-hydroxy-2-(2,2,2-trifluoroethyl)phenyl]-1H-pyrazolo[4,3-c]pyridine-3-carboxamide], 110 nM.
Same read-out and setting: in the case of `CCc1cc(O)c(F)cc1-c1cc2[nH]nc(C(=O)NC)c2c(NCc2cc(Cl)ccc2N(C)S(C)(=O)=O)n1` [Example 6, 4-({5-chloro-2-[methyl(methylsulfonyl)amino]benzyl}amino)-6-(2-ethyl-5-fluoro-4-hydroxyphenyl)-N-methyl-1H-pyrazolo[4,3-c]pyridine-3-carboxamide] it was 23.4 nM.
As for `CN(c1ccc(Cl)cc1CNc1nc(-c2cc(F)c(O)cc2CC(F)(F)F)cc2[nH]nc(C(N)=O)c12)S(C)(=O)=O` [Example 89, 4-({5-chloro-2-[methyl(methylsulfonyl)amino]benzyl}amino)-6-[5-fluoro-4-hydroxy-2-(2,2,2-trifluoroethyl)phenyl]-1H-pyrazolo[4,3-c]pyridine-3-carboxamide], half-maximal inhibition (IC50) was put at 46.3 nM.
`CN(c1ncc(Cl)cc1CNc1nc(-c2cc(F)c(O)cc2CC(F)(F)F)cc2[nH]nc(C(N)=O)c12)S(C)(=O)=O` [Example 72, 4-[({5-chloro-2-[methyl(methylsulfonyl)amino]pyridin-3-yl}methyl)amino]-6-[5-fluoro-4-hydroxy-2-(2,2,2-trifluoroethyl)phenyl]-1H-pyrazolo[4,3-c]pyridine-3-carboxamide]: it took 94.1 nM to reach half-maximal inhibition (IC50).
The molecule `CCN(c1ccc(F)cc1CNc1nc(-c2cc(F)c(O)cc2CC(F)(F)F)cc2[nH]nc(C(N)=O)c12)S(C)(=O)=O` [Example 83, 4-((2-(N-ethylmethylsulfonamido)-5-fluorobenzyl)amino)-6-(5-fluoro-4-hydroxy-2-(2,2,2-trifluoroethyl)phenyl)-1H-pyrazolo[4,3-c]pyridine-3-carboxamide] displayed an IC50 of 30 nM.
`CCN(c1ccc(O)cc1CNc1nc(-c2cc(F)c(O)cc2CC(F)(F)F)cc2[nH]nc(C(=O)NC)c12)S(=O)(=O)c1ccccc1` [Example 36, 4-({2-[ethyl(phenylsulfonyl)amino]-5-hydroxybenzyl}amino)-6-[5-fluoro-4-hydroxy-2-(2,2,2-trifluoroethyl)phenyl]-N-methyl-1H-pyrazolo[4,3-c]pyridine-3-carboxamide] showed an IC50 of 433 nM.
